Measurements taken from patent US20260139254A1, “INTERFERING RNA FOR INHIBITING TOP1 GENE EXPRESSION AND USE THEREOF” (JENKEM TECHNOLOGY CO., LTD. (BEIJING), priority 2022, published 2026).

What was measured:
TOP1 mRNA [1] = assay: Inhibitory effect of siTOP1 on TOP1 mRNA in A375 cells (Lipofectamine RNAiMAX transfection, Q-PCR); format: cell-based, human; settings: A375, siRNA 50 nM, 48 h after transfection
Description: • 1) On the day before transfection, A375 melanoma cells were seeded into a 24-well plate at 6×10^4 to 8×10^4 cells/well, the culture medium being 500 μL of DMEM containing 10% FBS and 1% Penicillin-Streptomycin, and the plate was placed in an incubator with 5% CO2 at 37° C. for 24 h to allow the cells to adhere to the wall. Three replicate wells were made for each group. • 2) On the day of transfection, the culture medium was changed to 450 μL of DMEM culture medium without antibiotics (containing 10% FBS). • 3) The siRNAs were diluted with 25 μL of Opti-MEM culture medium; the siNC (the siNC (reference: O Sordet et al., 2008) having the target sequence of 5′-TTCTCCGAACGTGTCACGT-3′ (SEQ ID NO: 46)) at the same concentration was the negative control group; Lipofectamine™ RNAiMAX (Lipo) transfection reagent was diluted with another 25 μL of Opti-MEM culture medium and left to stand at room temperature for 5 min; and the two dilutions were uniformly mixed and left to stand at room temperature for 5 min. • 4) 50 μL of the mixed solution described above was added to each well to obtain a final transfection volume of 500 μL. and the working concentration of the siRNA was 50 nM. • 5) After the transfection, the cells were cultured for 48 h and then collected.
• 1) RNA was extracted using an Eastep™ Super total RNA extraction kit; 300 μL of RNA lysis solution and 300 μL of RNA diluent were added; and the mixture was uniformly mixed and then transferred to a 1.5 mL centrifuge tube. • 2) The mixture was centrifuged at 14000 g for 5 min, and the supernatant was carefully pipetted into a new 1.5 mL centrifuge tube. • 3) A 0.5-fold volume of absolute ethanol was added, and the mixture was uniformly mixed by allowing the tube to be repeatedly upside down 15-20 times. Subsequently, the mixture was transferred to a centrifuge column and centrifuged at 12000 g for 1 min. The filtrate was discarded. • 4) 600 μL of RNA wash buffer was added, and the mixture was centrifuged at 12000 g for 1 min. The filtrate was discarded. • 5) 50 μL of DNase I incubation buffer was added, followed by DNA digestion at room temperature for 15 min. • 6) 600 μL of RNA wash buffer was added, the mixture was centrifuged at 12000 g for 1 min, and the filtrate was discarded. This procedure was repeated once. • 7) The mixture was centrifuged at 14000 g for 2 min to remove the residual RNA wash buffer, and then the centrifuge column was placed in a collection tube. • 8) An appropriate amount of RNase-free H2O was added, and the mixture was left to stand at room temperature for 12 min and centrifuged at 14000 g for 1 min. The collected RNA was preserved at −70° C. for later use.
• 1) The mass and concentration of the RNA were detected using NanoDrop™, and an RNA template was prepared as follows: RNase-free H2O was added to 1 μg of RNA to a volume of 10 μL; the mixture was placed at 70° C. for 5 min and then placed in an ice bath for 5 min for later use. • 2) A reaction system was established according to Table 2:
• 3) The reaction system described above was uniformly mixed and centrifuged to collect the liquid at the bottom of a tube, and the mixture was subjected to the procedures of 25° C. for 5 min, 42° C. for 60 min, and 72° C. for 15 min, thereby giving the cDNA product. • 4) A Q-PCR system was prepared according to Table 3, and the level of TOP1 gene was detected:
GAPDH was used as an endogenous reference, and the sequences of the primers used for detection are as follows: […]

TOP1 mRNA [2] = assay: Dose-dependence of siTOP1-1604 on TOP1 mRNA in HCT116 cells (qPCR); format: cell-based, human; settings: for Relative expression level of TOP1, mean value: 24 h, siNC = 100.00
Description: A transfection system was prepared as follows on the day of transfection: siTOP1-1604 was diluted with an appropriate amount of Opti-MEM culture medium; Lipofectamine™ RNAiMAX (Lipo) transfection reagent was diluted with another appropriate amount of Opti-MEM culture medium and left to stand at room temperature for 5 min; and the two dilutions were uniformly mixed, left to stand at room temperature for 5 min, and then added to 24-well cell culture plates at 50 μL/well. PC-3 human prostate cancer cells were added to one of the 24-well cell culture plates at 4×10^5 cells/well, the culture medium being 450 μL of F12K containing 10% FBS; HCT116 human colon cancer cells were added to the other of the 24-well cell culture plates at 3.5×10^5 cells/well, the culture medium being 450 μL of IMDM containing 10% FBS. The cells were uniformly mixed with the siRNA. The final transfection volume was 500 μL, and the working concentrations of the siRNA were 10, 1.67, 0.27, 0.046, 0.0077, 0.0013, and 0.00021 nM. The control groups were Blank (Opti-MEM at the equal volume), Lipofectamine™ RNAiMAX (Lipo) transfection reagent, as well as 10 nM of siNC.
After 24 h of transfection, the cells were collected. The total cellular RNA was extracted according to the method in Example 2, and the level of TOP1 mRNA was detected. […] Nonlinear fitting was performed on the qPCR results using Graphpad software and IC50 of siTOP1 was calculated.

siTOP1-1604: siRNA targeting TOP1; target SEQ ID NO: 9, sense strand SEQ ID NO: 24, antisense strand SEQ ID NO: 39 (sense GUGUGGACAAGAUCCGGAAUU; antisense UUCCGGAUCUUGUCCACACUU; described as unmodified parent siRNA, further chemistry not given here)
Inhibition of TOP1 expression (TOP1 mRNA [1]): 94.0% | Relative expression level of gene, mean value (TOP1 mRNA [1]; Blank = 100.00, GAPDH reference): 5.97 | Relative expression level of TOP1, mean value (TOP1 mRNA [2]; HCT116, 0.00021 nM): 73.06 | Relative expression level of TOP1, mean value (TOP1 mRNA [2]; HCT116, 0.0013 nM): 74.72 | Relative expression level of TOP1, mean value (TOP1 mRNA [2]; HCT116, 0.0077 nM): 54.01 | Relative expression level of TOP1, mean value (TOP1 mRNA [2]; HCT116, 0.046 nM): 17.23 | Relative expression level of TOP1, mean value (TOP1 mRNA [2]; HCT116, 0.27 nM): 7.57 | Relative expression level of TOP1, mean value (TOP1 mRNA [2]; HCT116, 1.67 nM): 7.91 | Relative expression level of TOP1, mean value (TOP1 mRNA [2]; HCT116, 10 nM): 3.98 | IC50 (TOP1 mRNA [2]; HCT116, 24 h, relative to siNC, nonlinear fit of qPCR results): 6 pM
